Assay results reported in PubChem BioAssay AID228 (DTP/NCI, 2004).
“And” between values parts separate entries of the source, which are not always exact repeats. Identical values can stand only once. Inconclusive results are not listed.

System: BDF1 mice, Friend leukemia sc, tumor weight T/C
Assay: NCI In Vivo Anticancer Drug Screen. Data for tumor model Friend Virus Leukemia (Solid) (subcutaneous) in B6D2F1 (BDF1) mice
Details: endpoint: mean tumor weight, higher = larger tumour
Method: The antitumor activity of compounds was measured in mice bearing transplantable tumors. Survival or tumor size were measured and the results are expressed as the measurement made in the treated group (T) divided by the measurement made in the vehicle treated control group (C). The tumor model used in this assay is Friend Virus Leukemia (Solid) (subcutaneous) in B6D2F1 (BDF1) mice

[1] = dose: 25.0 mg/kg/injection, schedule: Q01DX011 (ip), vehicle: carboxymethylcellulose (CMC)
[2] = dose: 50.0 mg/kg/injection, schedule: Q01DX011 (ip), vehicle: carboxymethylcellulose (CMC)
[3] = dose: 100.0 mg/kg/injection, schedule: Q01DX011 (ip), vehicle: carboxymethylcellulose (CMC)
[4] = dose: 15.0 mg/kg/injection, schedule: Q01DX011 (ip), vehicle: carboxymethylcellulose (CMC)
[5] = dose: 30.0 mg/kg/injection, schedule: Q01DX011 (ip), vehicle: carboxymethylcellulose (CMC)
[6] = dose: 60.0 mg/kg/injection, schedule: Q01DX011 (ip), vehicle: carboxymethylcellulose (CMC)
[7] = dose: 10.0 mg/kg/injection, schedule: Q01DX011 (ip), vehicle: carboxymethylcellulose (CMC)
[8] = dose: 1.0 mg/kg/injection, schedule: Q01DX011 (sc), vehicle: steriod suspending solution
[9] = dose: 10.0 mg/kg/injection, schedule: Q01DX011 (sc), vehicle: steriod suspending solution
[10] = dose: 20.0 mg/kg/injection, schedule: Q01DX011 (sc), vehicle: steriod suspending solution
[11] = dose: 100.0 mg/kg/injection, schedule: Q01DX011 (sc), vehicle: steriod suspending solution
[12] = dose: 200.0 mg/kg/injection, schedule: Q01DX011 (sc), vehicle: steriod suspending solution
[13] = dose: 400.0 mg/kg/injection, schedule: Q01DX011 (sc), vehicle: steriod suspending solution
[14] = dose: 25.0 mg/kg/injection, schedule: Q01DX011 (sc), vehicle: steriod suspending solution
[15] = dose: 50.0 mg/kg/injection, schedule: Q01DX011 (sc), vehicle: steriod suspending solution
[16] = dose: 120.0 mg/kg/injection, schedule: Q01DX011 (ip), vehicle: carboxymethylcellulose (CMC)

CN(C)c1ccc(/C=C/c2ccnc3ccccc23)cc1
T/C (dose: 37.5 mg/kg/injection, schedule: Q01DX011 (ip), vehicle: saline): 73 % of control | T/C (dose: 50.0 mg/kg/injection, schedule: Q01DX011 (ip), vehicle: saline): 51 % of control

CC(C)(C)c1ccc(S)cc1
T/C [1]: 181 % of control | T/C [2]: 121 % of control | T/C [3]: 85 % of control

CC1CN1C(=O)c1cc(C(=O)N2CC2C)cc(C(=O)N2CC2C)c1 (stereo not given)
T/C [4]: 70 % of control | T/C [5]: 151 % of control | T/C [6]: 47 % of control

O=C(O)Cc1ccc(C2CCCCC2)cc1
T/C (dose: 37.5 mg/kg/injection, schedule: Q01DX011 (ip), vehicle: carboxymethylcellulose (CMC)): 106 % of control | T/C (dose: 75.0 mg/kg/injection, schedule: Q01DX011 (ip), vehicle: carboxymethylcellulose (CMC)): 114 % of control | T/C (dose: 150.0 mg/kg/injection, schedule: Q01DX011 (ip), vehicle: carboxymethylcellulose (CMC)): 106 % of control | T/C (dose: 300.0 mg/kg/injection, schedule: Q01DX011 (ip), vehicle: carboxymethylcellulose (CMC)): 94 % of control

[N-]=[N+]=[N-]
T/C (dose: 1.06 mg/kg/injection, schedule: Q01DX011 (ip), vehicle: carboxymethylcellulose (CMC)): 89 % of control | T/C (dose: 2.12 mg/kg/injection, schedule: Q01DX011 (ip), vehicle: carboxymethylcellulose (CMC)): 108 % of control | T/C (dose: 4.25 mg/kg/injection, schedule: Q01DX011 (ip), vehicle: carboxymethylcellulose (CMC)): 114 % of control | T/C (dose: 8.5 mg/kg/injection, schedule: Q01DX011 (ip), vehicle: carboxymethylcellulose (CMC)): 117 % of control

C[n+]1c(-c2ccccc2)c2cc(N)ccc2c2ccccc21
T/C (dose: 4.4 mg/kg/injection, schedule: Q01DX011 (ip), vehicle: carboxymethylcellulose (CMC)): 103 % of control | T/C (dose: 6.6 mg/kg/injection, schedule: Q01DX011 (ip), vehicle: carboxymethylcellulose (CMC)): 117 % of control | T/C [7]: 53 % of control | T/C [4]: 89 % of control

C[C@]12CC[C@@H]3c4ccc(O)cc4CC[C@H]3[C@@H]1CC[C@@H]2O
T/C [8]: 74 % of control | T/C (dose: 5.0 mg/kg/injection, schedule: Q01DX011 (sc), vehicle: steriod suspending solution): 104 % of control | T/C [9]: 71 % of control | T/C [10]: 73 % of control | T/C (dose: 40.0 mg/kg/injection, schedule: Q01DX011 (sc), vehicle: steriod suspending solution): 61 % of control | T/C (dose: 80.0 mg/kg/injection, schedule: Q01DX011 (sc), vehicle: steriod suspending solution): 75 % of control | T/C [11]: 103 % of control | T/C (dose: 150.0 mg/kg/injection, schedule: Q01DX011 (sc), vehicle: steriod suspending solution): 106 % of control | T/C [12]: 101 % of control | T/C [13]: 110 % of control | T/C (dose: 500.0 mg/kg/injection, schedule: Q01DX011 (sc), vehicle: steriod suspending solution): 86 % of control and 107 % of control

CN(C)c1nc(N(C)C)nc(N(C)C)n1
T/C (dose: 3.75 mg/kg/injection, schedule: Q01DX011 (ip), vehicle: other): 104 % of control | T/C (dose: 7.5 mg/kg/injection, schedule: Q01DX011 (ip), vehicle: other): 83 % of control | T/C (dose: 15.0 mg/kg/injection, schedule: Q01DX011 (ip), vehicle: other): 112 % of control | T/C (dose: 30.0 mg/kg/injection, schedule: Q01DX011 (ip), vehicle: other): 84 % of control

CCC(c1ccc(O)cc1)C(CC)c1ccc(OC)cc1 (stereo not given)
T/C (dose: 0.5 mg/kg/injection, schedule: Q01DX011 (sc), vehicle: steriod suspending solution): 86 % of control | T/C [8]: 73 % of control | T/C (dose: 3.0 mg/kg/injection, schedule: Q01DX011 (sc), vehicle: steriod suspending solution): 60 % of control and 72 % of control | T/C (dose: 6.0 mg/kg/injection, schedule: Q01DX011 (sc), vehicle: steriod suspending solution): 61 % of control and 73 % of control | T/C (dose: 12.0 mg/kg/injection, schedule: Q01DX011 (sc), vehicle: steriod suspending solution): 43 % of control | T/C [14]: 54 % of control and 48 % of control | T/C [15]: 38 % of control | T/C [11]: 43 % of control | T/C [12]: 36 % of control

N#CCSc1ncnc2nc[nH]c12
T/C (dose: 15.5 mg/kg/injection, schedule: Q01DX011 (ip), vehicle: carboxymethylcellulose (CMC)): 91 % of control | T/C (dose: 31.0 mg/kg/injection, schedule: Q01DX011 (ip), vehicle: carboxymethylcellulose (CMC)): 32 % of control | T/C (dose: 62.5 mg/kg/injection, schedule: Q01DX011 (ip), vehicle: carboxymethylcellulose (CMC)): 18 % of control

C[C@]12C=CC(=O)C=C1CC[C@@H]1[C@@H]2C(=O)C[C@@]2(C)[C@H]1CC[C@]2(O)C(=O)CO
T/C [9]: 92 % of control | T/C [10]: 27 % of control | T/C [14]: 23 % of control | T/C [15]: 11 % of control | T/C [11]: 9 % of control | T/C [12]: 11 % of control

C[C@]12CCC(=O)C=C1CC[C@@H]1[C@@H]2[C@@H](O)C[C@@]2(C)[C@H]1CC[C@]2(O)C(=O)COC(=O)c1ccc([N+](=O)[O-])cc1Cl
T/C [15]: 69 % of control | T/C [11]: 58 % of control | T/C [12]: 55 % of control | T/C [13]: 35 % of control

CN(C)C1C(=O)C(C(N)=O)=C(O)C2(O)C(=O)C3=C(O)c4c(O)cccc4C(C)(O)C3C(O)C12 (stereo not given)
T/C (dose: 19.5 mg/kg/injection, schedule: Q01DX011 (ip), vehicle: carboxymethylcellulose (CMC)): 94 % of control | T/C (dose: 78.0 mg/kg/injection, schedule: Q01DX011 (ip), vehicle: carboxymethylcellulose (CMC)): 115 % of control | T/C (dose: 156.0 mg/kg/injection, schedule: Q01DX011 (ip), vehicle: carboxymethylcellulose (CMC)): 95 % of control

O=C1N(Cl)C(=O)C(c2ccc(Cl)cc2)(c2ccc(Cl)cc2)N1Cl
T/C [4]: 56 % of control | T/C [5]: 42 % of control | T/C [6]: 33 % of control | T/C [16]: 47 % of control

CCOC(=O)Sc1ncnc2nc[nH]c12
T/C (dose: 7.5 mg/kg/injection, schedule: Q01DX011 (ip), vehicle: carboxymethylcellulose (CMC)): 44 % of control | T/C [4]: 48 % of control | T/C [1]: 29 % of control and 40 % of control | T/C [2]: 17 % of control | T/C [3]: 2 % of control

CC(=O)Nc1ccc(NC(=O)c2ccc([As](O)O)cc2)cc1
T/C [5]: 111 % of control | T/C [6]: 109 % of control | T/C [16]: 101 % of control

O=C1C=Cc2ccc(O)cc2C1=O
T/C (dose: 1.25 mg/kg/injection, schedule: Q01DX011 (ip), vehicle: carboxymethylcellulose (CMC)): 108 % of control | T/C (dose: 2.5 mg/kg/injection, schedule: Q01DX011 (ip), vehicle: carboxymethylcellulose (CMC)): 83 % of control | T/C [7]: 102 % of control

CCC1=C(c2cc(Cl)c3ccccc3c2OCC(=O)O)OC(CC)(C(=O)c2cc(Cl)c3ccccc3c2OCC(=O)O)CC1 (stereo not given)
T/C [5]: 52 % of control | T/C [6]: 55 % of control | T/C [16]: 63 % of control | T/C (dose: 240.0 mg/kg/injection, schedule: Q01DX011 (ip), vehicle: carboxymethylcellulose (CMC)): 66 % of control

Cc1cc2nc3c(=O)[nH]c(=O)nc-3n(CCOC(=O)CCC(=O)O)c2cc1C
T/C (dose: 42.0 mg/kg/injection, schedule: Q01DX011 (ip), vehicle: carboxymethylcellulose (CMC)): 96 % of control | T/C (dose: 84.0 mg/kg/injection, schedule: Q01DX011 (ip), vehicle: carboxymethylcellulose (CMC)): 108 % of control | T/C (dose: 168.0 mg/kg/injection, schedule: Q01DX011 (ip), vehicle: carboxymethylcellulose (CMC)): 83 % of control | T/C (dose: 236.0 mg/kg/injection, schedule: Q01DX011 (ip), vehicle: carboxymethylcellulose (CMC)): 59 % of control

N#C[C@@H]1C2C=CC(CC2)[C@H]1C#N
T/C (dose: 0.5 mg/kg/injection, schedule: Q01DX011 (ip), vehicle: carboxymethylcellulose (CMC)): 97 % of control | T/C (dose: 1.0 mg/kg/injection, schedule: Q01DX011 (ip), vehicle: carboxymethylcellulose (CMC)): 71 % of control | T/C (dose: 2.0 mg/kg/injection, schedule: Q01DX011 (ip), vehicle: carboxymethylcellulose (CMC)): 83 % of control

OCC1OC(n2cnc3c(=S)nc[nH]c32)C(O)C1O (stereo not given)
T/C (dose: 0.1 mg/kg/injection, schedule: Q01DX011 (ip), vehicle: carboxymethylcellulose (CMC)): 82 % of control and 92 % of control | T/C (dose: 0.25 mg/kg/injection, schedule: Q01DX011 (ip), vehicle: carboxymethylcellulose (CMC)): 45 % of control | T/C [7]: 54 % of control | T/C [4]: 1 % of control and 8 % of control | T/C [1]: 17 % of control | T/C [2]: 13 % of control | T/C (dose: 62.0 mg/kg/injection, schedule: Q01DX011 (ip), vehicle: carboxymethylcellulose (CMC)): 2 % of control | T/C [3]: 8 % of control | T/C (dose: 125.0 mg/kg/injection, schedule: Q01DX011 (ip), vehicle: carboxymethylcellulose (CMC)): 1 % of control
